These results are taken from patent publication US8552002B2 (Novartis AG, priority 2004, dated 2013).

Where two headings read alike, the source gives them in different places.

Data set [1] deals with T1, KDR (Homo sapiens, UniProt P35968).
T1 construct: expressed in transfected cells; host or cells: CHO cells
Put plainly: Inhibitory activity against KDR (VEGF-R2), in vitro data of Examples 170 and 207. The format is biochemical. The settings on record: 10 μM, read-out: KDR inhibition at 10 μM. Summed up: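 KDR tyrosine phosphorylation detected by luminescence after overnight 4° C capture of 20 μg lysate protein with PY20:AP antibody. Lysates came from cells given compound for 2 h at 37° C, then final 20 ng/ml VEGF for 5 min; compound-free medium as control.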

Data set [2] addresses T2, FGFR3 (K650E) (Homo sapiens, UniProt P22607, K650E).
T2 construct: amino acids 411-806 of the cytoplasmic domain of human FGFR-3, N-terminally fused to GST; made in house; host or cells: Sf9 insect cells (baculovirus)
Kind of data set: Recombinant GST-FGFR-3-K650E tyrosine kinase assay (33P into poly(Glu,Tyr)). It counts as biochemical. The settings on record: 10 μM.

In data set [3] the target is c-Abl (Homo sapiens, UniProt P00519). Kind of data set: Inhibitory activity against c-Abl (Example 207). It counts as biochemical. The settings on record: Examples 171 to 206.
Chain of c-Abl (P00519 whole entry): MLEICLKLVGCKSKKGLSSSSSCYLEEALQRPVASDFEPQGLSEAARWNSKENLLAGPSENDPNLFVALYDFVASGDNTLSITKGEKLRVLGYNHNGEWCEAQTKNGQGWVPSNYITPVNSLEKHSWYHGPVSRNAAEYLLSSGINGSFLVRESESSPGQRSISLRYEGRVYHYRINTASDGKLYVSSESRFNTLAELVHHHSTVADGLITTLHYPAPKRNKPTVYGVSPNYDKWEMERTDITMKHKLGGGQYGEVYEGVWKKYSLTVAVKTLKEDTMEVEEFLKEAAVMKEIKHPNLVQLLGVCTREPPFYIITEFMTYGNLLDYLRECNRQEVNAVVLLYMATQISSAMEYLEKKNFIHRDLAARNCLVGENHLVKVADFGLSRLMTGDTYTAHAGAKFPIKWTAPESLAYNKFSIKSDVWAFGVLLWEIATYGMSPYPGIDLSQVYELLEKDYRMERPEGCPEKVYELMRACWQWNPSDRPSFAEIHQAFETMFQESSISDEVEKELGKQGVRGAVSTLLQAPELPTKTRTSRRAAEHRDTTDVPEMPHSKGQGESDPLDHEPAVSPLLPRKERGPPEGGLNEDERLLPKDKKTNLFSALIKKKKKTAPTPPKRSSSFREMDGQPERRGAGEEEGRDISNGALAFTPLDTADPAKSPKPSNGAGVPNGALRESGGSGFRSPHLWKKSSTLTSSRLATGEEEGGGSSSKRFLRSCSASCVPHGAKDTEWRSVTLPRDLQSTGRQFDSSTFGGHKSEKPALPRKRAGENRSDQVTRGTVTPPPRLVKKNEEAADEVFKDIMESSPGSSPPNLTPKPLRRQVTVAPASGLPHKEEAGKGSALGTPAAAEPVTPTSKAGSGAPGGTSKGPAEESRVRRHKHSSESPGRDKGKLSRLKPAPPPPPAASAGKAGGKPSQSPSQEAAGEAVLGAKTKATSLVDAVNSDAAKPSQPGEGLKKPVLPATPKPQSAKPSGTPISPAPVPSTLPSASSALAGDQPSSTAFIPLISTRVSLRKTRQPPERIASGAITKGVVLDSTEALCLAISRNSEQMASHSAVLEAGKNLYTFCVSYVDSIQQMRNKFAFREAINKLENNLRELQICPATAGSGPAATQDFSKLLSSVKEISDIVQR
In data set [4] the target is T3, Tek (Homo sapiens, UniProt Q02763).
T3 construct: amino acids 773-1124 of the cytoplasmic kinase domain of human Tek, N-terminally fused to GST; made in house; host or cells: Sf9 insect cells (baculovirus)
T3 sequence (Q02763 773-1124): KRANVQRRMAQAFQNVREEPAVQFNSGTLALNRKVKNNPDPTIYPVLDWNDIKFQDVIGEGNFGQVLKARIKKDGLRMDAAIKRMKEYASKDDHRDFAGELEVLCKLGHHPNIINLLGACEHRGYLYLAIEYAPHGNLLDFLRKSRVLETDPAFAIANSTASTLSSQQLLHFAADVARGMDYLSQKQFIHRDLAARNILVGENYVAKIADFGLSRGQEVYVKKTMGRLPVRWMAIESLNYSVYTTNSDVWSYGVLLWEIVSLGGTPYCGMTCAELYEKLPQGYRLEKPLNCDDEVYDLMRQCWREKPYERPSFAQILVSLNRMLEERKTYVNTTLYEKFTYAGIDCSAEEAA
Put plainly: Recombinant GST-Tek (Tie-2) tyrosine kinase assay (33P into poly(Glu,Tyr)). To be noted: Examples 1 to 169. The format is biochemical. Summed up: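 GST-fused human Tek kinase domain (aa 773-1124), baculovirus-expressed, 150 ng per reaction; 10 μg/mL poly(Glu,Tyr) 4:1, 4.0 μM [γ-33P]ATP, 3 mM MnCl2/3 mM MgCl2, pH 7.5, 30 min at ambient temperature. 33P uptake read on PVDF filters; IC50 by linear regression from four concentrations in duplicate.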

[5] abbreviates: Examples 171 to 206, read-out: FGFR3 inhibition at 10 μM.
Where [6] appears, read: Examples 1 to 169, read-out: FGFR3 (K650E) inhibition at 10 μM.

For orientation: inhibition means how much of the control response was suppressed. One may read the melting point as the temperature, or range, at which the solid turns liquid.

T2 sequence (P22607 411-806 K650E): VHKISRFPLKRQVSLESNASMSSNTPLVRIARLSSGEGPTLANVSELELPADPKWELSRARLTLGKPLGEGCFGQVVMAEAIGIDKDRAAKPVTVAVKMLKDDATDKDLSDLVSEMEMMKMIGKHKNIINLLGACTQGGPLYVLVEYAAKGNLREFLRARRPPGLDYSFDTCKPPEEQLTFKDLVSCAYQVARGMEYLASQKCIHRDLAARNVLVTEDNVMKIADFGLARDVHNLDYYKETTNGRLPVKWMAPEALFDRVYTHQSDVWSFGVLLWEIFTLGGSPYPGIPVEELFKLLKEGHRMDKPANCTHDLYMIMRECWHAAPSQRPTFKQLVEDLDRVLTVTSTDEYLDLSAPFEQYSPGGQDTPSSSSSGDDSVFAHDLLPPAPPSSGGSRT
T1 sequence (P35968 20-1356): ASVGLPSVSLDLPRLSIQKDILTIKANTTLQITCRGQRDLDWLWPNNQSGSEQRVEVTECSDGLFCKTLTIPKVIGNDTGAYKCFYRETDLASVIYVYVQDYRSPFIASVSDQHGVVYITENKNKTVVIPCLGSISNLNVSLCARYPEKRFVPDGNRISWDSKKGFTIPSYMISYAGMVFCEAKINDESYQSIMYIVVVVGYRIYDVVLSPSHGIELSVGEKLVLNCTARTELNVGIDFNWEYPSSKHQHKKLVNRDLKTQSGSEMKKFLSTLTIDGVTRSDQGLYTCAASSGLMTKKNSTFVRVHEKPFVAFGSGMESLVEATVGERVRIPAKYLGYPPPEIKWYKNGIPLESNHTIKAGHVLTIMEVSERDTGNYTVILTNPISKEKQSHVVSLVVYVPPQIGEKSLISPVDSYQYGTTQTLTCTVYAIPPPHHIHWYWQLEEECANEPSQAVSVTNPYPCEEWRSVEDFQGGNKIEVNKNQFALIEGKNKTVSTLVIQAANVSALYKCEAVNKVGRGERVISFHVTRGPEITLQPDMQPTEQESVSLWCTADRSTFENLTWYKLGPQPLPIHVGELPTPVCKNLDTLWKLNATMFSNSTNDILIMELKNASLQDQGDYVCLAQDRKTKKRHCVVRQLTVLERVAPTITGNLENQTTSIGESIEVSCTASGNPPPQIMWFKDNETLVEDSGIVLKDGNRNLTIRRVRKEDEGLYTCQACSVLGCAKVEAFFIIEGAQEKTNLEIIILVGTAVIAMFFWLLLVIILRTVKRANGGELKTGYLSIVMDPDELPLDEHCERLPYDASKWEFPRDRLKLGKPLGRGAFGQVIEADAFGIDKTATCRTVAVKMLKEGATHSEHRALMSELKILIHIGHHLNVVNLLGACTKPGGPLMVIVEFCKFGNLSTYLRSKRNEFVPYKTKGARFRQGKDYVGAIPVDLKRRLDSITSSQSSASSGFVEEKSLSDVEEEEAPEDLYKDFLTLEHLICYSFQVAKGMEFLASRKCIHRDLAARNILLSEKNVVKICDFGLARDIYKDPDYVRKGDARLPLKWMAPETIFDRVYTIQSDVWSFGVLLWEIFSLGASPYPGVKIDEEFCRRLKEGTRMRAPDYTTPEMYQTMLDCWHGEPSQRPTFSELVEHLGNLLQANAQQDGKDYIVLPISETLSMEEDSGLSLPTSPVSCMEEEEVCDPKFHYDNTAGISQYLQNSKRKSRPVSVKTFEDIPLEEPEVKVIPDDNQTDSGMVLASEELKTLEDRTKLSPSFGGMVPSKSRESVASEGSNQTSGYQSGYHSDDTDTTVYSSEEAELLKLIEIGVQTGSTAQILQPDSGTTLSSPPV

For `Cc1ccc(NC(=O)c2cccc(C(F)(F)F)c2)cc1NC(=O)N(C)c1cc(Nc2ccc(N3CCN(C)CC3)cc2)ncn1` [Example 171, N-[4-Methyl-3-(3-methyl-3-{6-[4-(4-methyl-piperazin-1-yl)-phenyl-amino]-pyrimidin-4-yl}-ureido)-phenyl]-3-trifluoromethyl-benzamide], the melting point fell in the range of 189.5 to 191 °C. The inhibition at 10 µM in data set [1] (Examples 171 to 206) was 87 to 100%. Moreover, the inhibition at 10 µM in data set [2] (setting [5]) was 56 to 98%. Besides, in data set [3], the inhibition at 10 µM lay in the range of 79 to 100%.
As to `CN1CCN(c2ccc(Nc3cc(NC(=O)Nc4ccc(Cl)c(Cl)c4)ncn3)cc2)CC1` [Example 75, 1-(3,4-Dichloro-phenyl)-3-{6-[4-(4-methyl-piperazin-1-yl)-phenylamino]-pyrimidin-4-yl}-urea], the melting point was 260 to 262 °C. Moreover, the inhibition at 10 µM in data set [1] (Examples 1 to 169) was in the range of 67 to 100%. The inhibition at 10 µM in data set [2] (setting [6]) fell in the range of 27 to 100%. The inhibition at 10 µM in data set [4] lay within 12 to 100%.
For `CN1CCN(c2cccc(Nc3cc(NC(=O)Nc4c(Cl)cc(Cl)cc4Cl)ncn3)c2)CC1` [Example 86, 1-{6-[3-(4-Methyl-piperazin-1-yl)-phenylamino]-pyrimidin-4-yl}-3-(2,4,6-trichloro-phenyl)-urea], the melting point lay in the range of 138 to 142 °C. Also, the inhibition at 10 µM in data set [1] (Examples 1 to 169) was in the range of 67 to 100%. Further, the inhibition at 10 µM in data set [2] (setting [6]) is 27 to 100%. In data set [4], the inhibition at 10 µM is 12 to 100%.
`CN1CCC(COc2ccc(Nc3cc(NC(=O)Nc4c(Cl)cc(Cl)cc4Cl)ncn3)cc2)CC1` [Example 69, 1-{6-[4-(1-Methyl-piperidin-4-ylmethoxy)-phenylamino]-pyrimidin-4-yl}-3-(2,4,6-trichloro-phenyl)-urea]: the melting point lay in the range of 189 to 191 °C. Moreover, in data set [1] (Examples 1 to 169), the inhibition at 10 µM lay in the range of 67 to 100%. Further, the inhibition at 10 µM in data set [2] (setting [6]) lay within 27 to 100%. Moreover, the inhibition at 10 µM in data set [4] was 12 to 100%.
Consider `Cc1cccc(Cl)c1NC(=O)Nc1cc(N[C@H]2CC[C@H](O)CC2)ncn1` [Example 90, 1-(2-Chloro-6-methyl-phenyl)-3-[6-((trans)-4-hydroxy-cyclohexylamino)-pyrimidin-4-yl]-urea], for which the melting point lay within 149 to 152 °C. Also, in data set [1] (Examples 1 to 169), the inhibition at 10 µM was in the range of 67 to 100%. In addition, in data set [2] (setting [6]), the inhibition at 10 µM is 27 to 100%. Also, the inhibition at 10 µM in data set [4] was 12 to 100%.
`CN1CCN(c2ccc(Nc3cc(NC(=O)Nc4cc(Cl)ccc4Cl)ncn3)cc2)CC1` [Example 72, 1-(2,5-Dichloro-Phenyl)-3-{6-[4-(4-methyl-piperazin-1-yl)-phenylamino]-pyrimidin-4-yl}-urea]: the melting point was in the range of 223 to 225 °C. Moreover, the inhibition at 10 µM in data set [1] (Examples 1 to 169) fell in the range of 67 to 100%. Besides, in data set [2] (setting [6]), the inhibition at 10 µM lay within 27 to 100%. Further, the inhibition at 10 µM in data set [4] was in the range of 12 to 100%.
The like results for `CC(C)Nc1cc(NC(=O)Nc2c(Cl)cccc2Cl)ncn1` [Example 68, 1-(2,6-Dichloro-phenyl)-3-(6-isopropylamino-pyrimidin-4-yl)-urea] were, in that order, 203 to 204 °C, 67 to 100%, 27 to 100% and 12 to 100%.
In turn, `Cc1ccc(NC(=O)c2ccc(CN3CCN(C)CC3)c(C(F)(F)F)c2)cc1NC(=O)N(C)c1cc(N)ncn1` [Example 194, N-{3-[3-(6-Amino-pyrimidin-4-yl)-3-methyl-ureido]-4-methyl-phenyl}-4-(4-methyl-piperazin-1-ylmethyl)-3-trifluoromethyl-benzamide] registered a melting point of 191.5 to 193 °C. In data set [1] (Examples 171 to 206), the inhibition at 10 µM is 87 to 100%. In data set [2] (setting [5]), the inhibition at 10 µM was 56 to 98%. Also, the inhibition at 10 µM in data set [3] was in the range of 79 to 100%.
`CN1CCN(Cc2ccc(Nc3cc(NC(=O)Nc4c(Cl)cc(Cl)cc4Cl)ncn3)cc2)CC1` [Example 84, 1-{6-[4-(4-Methyl-piperazin-1-ylmethyl)-phenylamino]-pyrimidin-4-yl}-3-(2,4,6-trichloro-phenyl)-urea] yielded a melting point of 194 to 196 °C. Moreover, in data set [1] (Examples 1 to 169), the inhibition at 10 µM lay in the range of 67 to 100%. Besides, in data set [2] (setting [6]), the inhibition at 10 µM fell in the range of 27 to 100%. In addition, the inhibition at 10 µM in data set [4] fell in the range of 12 to 100%.
`Cc1cccc(Cl)c1NC(=O)Nc1cc(Nc2cccc(OCC3CCN(C)CC3)c2)ncn1` [Example 79, 1-(2-Chloro-6-methyl-phenyl)-3-{6-[3-(1-methyl-piperidin-4-ylmethoxy)-phenylamino]-pyrimidin-4-yl}-urea] had a melting point of 200 to 204 °C. For the same molecule, in data set [1] (Examples 1 to 169), the inhibition at 10 µM was 67 to 100%. In addition, the inhibition at 10 µM in data set [2] (setting [6]) lay in the range of 27 to 100%. Moreover, the inhibition at 10 µM in data set [4] fell in the range of 12 to 100%.
As for `CN1CCN(c2ccc(N(C(=O)Nc3cccc(Cl)c3Cl)c3cc(N)ncn3)cc2)CC1` [Example 76, 1-(6-Amino-pyrimidin-4-yl}-3-(2,3-dichloro-phenyl)-1-[4-(4-methyl-piperazin-1-yl)-phenyl]-urea], the melting point fell in the range of 280 to 282 °C. In addition, in data set [1] (Examples 1 to 169), the inhibition at 10 µM lay in the range of 67 to 100%. Also, the inhibition at 10 µM in data set [2] (setting [6]) lay within 27 to 100%. The inhibition at 10 µM in data set [4] was in the range of 12 to 100%.
The matching figures for `CN1CCN(c2ccc(Nc3cc(NC(=O)Nc4cc(Cl)c(Cl)cc4Cl)ncn3)cc2)CC1` [Example 74, 1-{6-[4-(4-Methyl-piperazin-1-yl)-phenylamino]-pyrimidin-4-yl}-3-(2,4,5-trichloro-phenyl)-urea]: 252 to 254 °C, 67 to 100%, 27 to 100% and 12 to 100%.
In turn, `O=C(Nc1cc(N[C@H]2CC[C@H](O)CC2)ncn1)Nc1c(Cl)cc(Cl)cc1Cl` [Example 88, 1-[6-((trans)-4-Hydroxy-cyclohexylamino)-pyrimidin-4-yl]-3-(2,4,6-trichloro-phenyl)-urea] returned a melting point of 171 to 173 °C. Also, the inhibition at 10 µM in data set [1] (Examples 1 to 169) lay within 67 to 100%. Besides, the inhibition at 10 µM in data set [2] (setting [6]) lay in the range of 27 to 100%. Besides, the inhibition at 10 µM in data set [4] fell in the range of 12 to 100%.
